Target: Glycogen synthase kinase-3 beta (Homo sapiens, UniProt P49841)
Assay: GSK3beta kinase inhibitor potency, dose response, biochemical, luminescence, cell-free homogeneous, retest (AID 434954)

Glycogen synthase kinase-3 beta, sequence (P49841 whole entry): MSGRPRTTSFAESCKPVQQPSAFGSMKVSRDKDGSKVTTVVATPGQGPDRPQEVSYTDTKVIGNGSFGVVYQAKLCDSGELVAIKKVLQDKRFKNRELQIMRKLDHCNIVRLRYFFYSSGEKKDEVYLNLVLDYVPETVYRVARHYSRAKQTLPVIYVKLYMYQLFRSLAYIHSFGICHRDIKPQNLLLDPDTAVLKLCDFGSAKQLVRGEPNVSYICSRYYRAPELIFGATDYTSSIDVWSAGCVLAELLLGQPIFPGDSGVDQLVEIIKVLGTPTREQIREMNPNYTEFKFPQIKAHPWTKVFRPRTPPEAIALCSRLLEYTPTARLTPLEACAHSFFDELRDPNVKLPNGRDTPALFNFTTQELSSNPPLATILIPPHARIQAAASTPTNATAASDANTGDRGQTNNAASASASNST

| EC50 [µM] | SMILES |
| --- | --- |
| > 300 | CC(C)=CCc1c(O)cc(O)c2c1O[C@H](c1ccc(O)cc1)CC2=O |
| 22 | c1ccc(Nc2nc(-c3ccncc3)nc3ccccc23)cc1 |
| > 300 | COc1cccc(C(N)=O)c1 |
| > 300 | Nc1ncnc2c1ncn2[C@@H]1O[C@H](CO)[C@@H](O)[C@H]1N |
| > 300 | CC(C)n1cnc2c(Nc3cccc(Cl)c3)nc(NCCCO)nc21 |
| > 300 | NC(=O)c1c(NC(=O)c2ccncc2)sc2c1CCCC2 |
| > 300 | N#Cc1c(N)nc2c(c1-c1ccc(F)cc1)CCC2 |
| 117 | O=C(Nc1ccc(O)c2c(=O)cc(-c3ccccc3Cl)oc12)c1ccc(Cl)c(Cl)c1 |
| > 300 | O=C(O)CSCC(=O)NCc1c(Cl)cccc1Oc1ccccc1 |
| 11.2 | Fc1ccccc1CN=Nc1ncnc2nc[nH]c12 |
| 21.3 | Cc1c(C(=O)O)cccc1-n1c(C)cc(CN=Nc2ccc([N+](=O)[O-])cn2)c1C |
| > 300 | O=C(Cc1ccc(F)cc1)NN=Cc1ccc(-c2ccc(Cl)c(C(=O)O)c2)o1 |
| > 300 | COc1cccc(-c2nc(SCC(=O)Nc3nc(-c4ccccc4)c(C)s3)[nH]c(=O)c2C#N)c1 |
| 34.2 | CCOc1ccc2nc(NC(=O)CSc3nc(O)c(C#N)c(-c4ccccc4)n3)sc2c1 |
| > 300 | O=C(O)c1ccc(-c2ccc(CN=Nc3ccc([N+](=O)[O-])cc3)o2)cc1 |
| > 300 | O=C(CCc1ccccc1)Nc1ncc([N+](=O)[O-])s1 |
| > 300 | N#CC(C#N)c1nc2ccccc2nc1-[n+]1cccc([N-]C(=O)c2ccccc2)c1 |
| > 300 | CCC(=NNC(=S)Nc1cccc(C)c1)c1ccccc1 |
| 8.5 | O=C1N=C(S)SC1=Cc1ccc(N2CCOCC2)o1 |
| > 300 | COc1cc(/C=N/NC(=O)c2ccc(Cl)cc2)ccc1Oc1ccc([N+](=O)[O-])cn1 |
| 26.3 | O=C(COc1ccc(Cl)cc1)Nc1ncc([N+](=O)[O-])s1 |
| > 300 | OCCNc1nc2nonc2nc1NCCO |
| 0.212 | OCCCNc1cc(-c2ccnc(Nc3cccc(Cl)c3)n2)ccn1 |
| > 300 | CCOC(=O)C(C(=O)Nc1ccc(Cl)cc1Cl)C1=NC(C)(C)Cc2ccccc21 (stereo not given) |

| EC50 [µM] | SMILES |
| --- | --- |
| > 300 | NNC(=O)CNC(=O)c1ccc(F)cc1 |
| > 300 | O=[N+]([O-])c1ccc(Cl)cc1NCCCN1CCOCC1 |
| > 300 | O=[N+]([O-])c1ccccc1Oc1ccccc1Cl |
| > 300 | CCOC(=O)c1cnc2ccc(OC)cc2c1NCCc1ccc(OC)c(OC)c1 |
| > 300 | CCOC(=O)C1C(C(F)(F)F)=Nc2ncnn2C1c1cc(OC)ccc1OC (stereo not given) |
| 9.2 | Cc1ccc(Nc2nc(N)c([N+](=O)[O-])c(NCc3ccco3)n2)cc1 |
| 67.1 | CNc1nc(N)c([N+](=O)[O-])c(NCCO)n1 |
| 6.1 | CC(C)CNc1nc(N)c([N+](=O)[O-])c(NCC2CCCO2)n1 (stereo not given) |
| 4.95 | Cc1ccc(Nc2nc(NCC3CCCO3)nc(N)c2[N+](=O)[O-])cc1 (stereo not given) |
| > 300 | CN(C)c1nc(N)c([N+](=O)[O-])c(NCCO)n1 |
| 9.74 | Nc1nc(NCCO)nc(NCC2CCCO2)c1[N+](=O)[O-] (stereo not given) |
| > 300 | CC(NC(=O)/C=C/c1ccco1)c1nc2ccccc2n1Cc1ccccc1F (stereo not given) |
| 12.2 | Nc1nc(NCC2CCCO2)nc(NCC2CCCO2)c1[N+](=O)[O-] (stereo not given) |
| 11.9 | Fc1cccc(CN=Nc2ncnc3nc[nH]c23)c1 |
| > 300 | COC1=C/C(=C/c2c(N)n3cc(C)sc3nc2=O)C=CC1=O |
| > 300 | COCC(C)n1c(C)cc(C(=O)COC(=O)c2ccc3c(c2)NC(=O)CS3)c1C (stereo not given) |
| > 300 | CC(CC(=O)Nc1ccc(F)c([N+](=O)[O-])c1)c1ccccc1 (stereo not given) |
| > 300 | COc1ccc(C(=O)OCCc2ccc(O)cc2)cc1 |
| > 300 | C=CCNC(=O)/C(=C\c1cccc([N+](=O)[O-])c1)NC(=O)c1ccccc1 |
| > 300 | O=C1c2ccccc2NC(c2c[nH]nc2-c2ccccc2)N1O (stereo not given) |
| > 300 | CC1=NC2=C(C(=O)CC(C)(C)C2)C(c2ccc(O)cc2)C1C#N (stereo not given) |
| > 300 | CC(C)Nc1nc(N=C(N)S)nc(NC(C)C)n1 |
| 7.19 | Cc1ccnc(NC(=O)C(C)n2cc([N+](=O)[O-])cn2)c1 (stereo not given) |
| > 300 | CC(=O)COc1cc(C)cc2oc(=O)cc(-c3ccccc3)c12 |

| EC50 [µM] | SMILES |
| --- | --- |
| > 300 | CCCNC(=O)c1ccc(SCC(=O)N(CC)CC)c([N+](=O)[O-])c1 |
| > 300 | CC1=C(C(=O)Nc2ccccc2F)C(c2cccs2)C2C(=O)CCCC2=N1 (stereo not given) |
| > 300 | OC1(C#CCN2CCOCC2)CCCCC1 |
| > 300 | O=Cc1cn(CCC(=O)O)nc1-c1cccc(Cl)c1 |
| > 300 | c1ccc(-c2nnc(-c3ccncc3)nc2-c2ccccc2)cc1 |
| > 300 | Fc1ccc(CSc2nnc(-c3ccncc3)o2)cc1 |
| > 300 | N#Cc1ccccc1NC(=O)CSc1nnc(-c2ccncc2)o1 |
| > 300 | CN(C)CC(=O)N1c2ccccc2Sc2ccc(Cl)cc21 |
| > 300 | COc1ccc(NC(=S)Nc2cccc(Cl)c2Cl)cc1OC |
| > 300 | C[N+](C)=c1ccn(CC(=O)N2c3ccccc3Sc3ccccc32)cc1 |
| > 300 | Cc1cc2c(=O)oc(-c3ccc(F)cc3)nc2s1 |
| > 300 | O=C(NN=Cc1ccc(Br)s1)c1cccnc1 |
| 16.9 | Cc1ccnc(NC(=O)CCC(=O)N(CC(=O)NCc2ccccc2)Cc2cccs2)c1 |
| > 300 | O=C(Nc1ccccc1)Nc1ccncc1 |
| > 300 | CC(Cc1c[nH]c2ccccc12)NC(=O)OCCCl (stereo not given) |
| > 300 | O=C(COc1ccccc1[N+](=O)[O-])NN=Cc1ccncc1 |
| > 300 | c1ccc(CSc2ccc3nnc(-c4ccccn4)n3n2)cc1 |
| > 300 | Cc1ccc(CSc2ccc3nnc(-c4ccccn4)n3n2)cc1 |
| > 300 | COc1ccc(-c2csc(N(CC3CCCO3)C(=O)c3ccccc3)n2)cc1 (stereo not given) |
| > 300 | c1ccc(CCCNCC2COc3ccccc3O2)cc1 (stereo not given) |
| 2.06 | Cc1[nH]nc2c1C(c1ccc(O)cc1)C1C(=O)CC(C)(C)CC1=N2 (stereo not given) |
| > 300 | Cc1ccc(C(=O)COC(=O)c2ccc(O)cc2)cc1 |
| > 300 | O=C(Nc1cccc2c1C(=O)NC2=O)c1cccc(-n2c(O)ccc2O)c1 |
| > 300 | CC(C)N1CCc2c(sc(NC(=O)CN3C(=O)c4ccccc4C3=O)c2C(N)=O)C1 |

| EC50 [µM] | SMILES |
| --- | --- |
| > 300 | N#Cc1c(-c2ccc(F)cc2)nc(-c2ccccc2)[nH]c1=O |
| > 300 | CCO[C@H]1OC(C(=O)N2CCN(Cc3ccccc3)CC2)=C[C@@H](C)[C@@H]1CCCO |
| 86.3 | COc1ccc(-c2nn(CCC#N)cc2CN=O)cc1 |
| 5.66 | O=NCc1ccc(N2CCCC2)c([N+](=O)[O-])c1 |
| > 300 | COc1ccccc1NC(=O)C(C)Nc1ccc(C)c(Cl)c1 (stereo not given) |
| > 300 | CCN(CC)S(=O)(=O)c1ccc(O)c(C(=O)OCC(=O)Nc2cc(C)c(C)cc2[N+](=O)[O-])c1 |
| 20.4 | O=C(O)c1ccc(CN=Nc2ccc(C(F)(F)F)cn2)cc1 |
| > 300 | c1cncc(-c2nc(NCc3cccs3)c3ccccc3n2)c1 |
| > 300 | Cc1cc(C)n2nc(SCC(=O)N(CC(C)C)c3c(N)n(CC(C)C)c(=O)[nH]c3=O)nc2n1 |
| > 300 | O=S(=O)(/C=C/c1ccccc1)N1CCN(Cc2ccc3c(c2)OCO3)CC1 |
| > 300 | Fc1ccccc1Cn1c2[n+](c3ccc(C(F)(F)F)cc31)CCCCC2 |
| > 300 | COc1cc(C2OCC3C(c4cc(OC)c(OC)c(OC)c4)OCC23)cc(OC)c1OC (stereo not given) |
| 12.4 | COc1cc(/C=C2\Oc3cc(O)ccc3C2=O)ccc1O |
| 56.8 | Clc1cccc(Nc2nc(-c3ccncc3)nc3ccccc23)c1 |
| 13.3 | Nc1nc(Nc2ccccc2)nc(NCc2ccccc2)c1[N+](=O)[O-] |
| > 300 | CCCn1nc(NC(=O)c2cccs2)c2cc3cccc(C)c3nc21 |
| 3.93 | COCCCNc1nc(N)c([N+](=O)[O-])c(NCC2CCCO2)n1 (stereo not given) |
| 125 | O=C(C[n+]1ccc(C=Cc2ccccc2)cc1)c1ccc2c(c1)OCCO2 |
| 51.5 | O=C(CN1CCN(Cc2ccccc2Cl)CC1)NN=Cc1ccccn1 |
| 16.7 | Nc1nc(NCCOCCO)nc(NCC2CCCO2)c1[N+](=O)[O-] (stereo not given) |
| 35.9 | CC1CN(c2nc(Nc3ccccc3)nc(N)c2[N+](=O)[O-])CC(C)O1 (stereo not given) |
| > 300 | CCCc1nc2c([nH]1)c(=O)n(C)c(=O)n2C |
| > 300 | Cc1nc(Nc2ccccc2)sc1C(=O)Nc1ccccc1 |
| > 300 | CCn1nc(NC(=O)Cc2ccc(OC)cc2)c2cc3cc(C)ccc3nc21 |

| EC50 [µM] | SMILES |
| --- | --- |
| > 300 | Fc1ccc(CSc2nnc(-c3ccco3)o2)cc1 |
| 117 | Cc1ccc(CNc2nc(N)c([N+](=O)[O-])c(NCCO)n2)cc1 |
| > 300 | Nc1nc(NCc2ccco2)nc(NCCO)c1[N+](=O)[O-] |
| 29.8 | CSc1nc(NCCCO)c2c3c(sc2n1)CN(C)CC3 |
| > 300 | NC(=O)COC(=O)c1ccc(-c2ccc(O)cc2)cc1 |
| > 300 | C/C=C/c1ccc(OCC(=O)O)c(OC)c1 |
| 140 | S=c1[nH]c(-c2ccccc2)cn1N=Cc1ccncc1 |
| 1.73 | Nc1nc(Nc2cccc(Cl)c2)nc(NCCO)c1[N+](=O)[O-] |
| 87.6 | COc1ccccc1Nc1nc(NCCO)nc(N)c1[N+](=O)[O-] |
| 45.5 | c1ccc(Nc2ncnc3[nH]ncc23)cc1 |
| > 300 | O=S1(=O)CC2SC(=S)N(c3ccccc3)C2C1 (stereo not given) |
| > 300 | N#CCCN1CCCc2cc(/N=N/c3ccc(C(F)(F)F)cc3)ccc21 |
| > 300 | Cn1nc2c3ccccc3n(Cc3ccc(F)cc3)c2nc1=S |
| 16.9 | c1ccc(CN=Nc2nccc(-c3cccnc3)n2)cc1 |
| 87.4 | O=C(Nc1ccc(O)c2c(=O)cc(-c3ccccc3Cl)oc12)c1cccc(Cl)c1 |
| 9.16 | O=C(Nc1ccc(O)c2c(=O)cc(-c3ccccc3Cl)oc12)c1ccc(Cl)cc1Cl |
| > 300 | O=c1cc(-c2ccccc2Cl)oc2c(NS(=O)(=O)c3ccccc3C(F)(F)F)ccc(O)c12 |
| > 300 | O=C(Nc1ccc(O)c2c(=O)cc(-c3ccccc3Cl)oc12)c1ccccc1Cl |
| > 300 | Cc1cccc(C(=O)Nc2ccc(O)c3c(=O)cc(-c4ccccc4Cl)oc23)c1 |
| > 300 | CC1=C(C#N)C(=O)NC(=O)C1=CNc1ccc(S(=O)(=O)N(C)C)cc1 |
| 1.04 | COc1ccc(C(=O)c2sc(Nc3ccccc3)nc2N)cc1 |
| > 300 | Cc1ccc(C(=O)Nc2ncc([N+](=O)[O-])s2)cc1 |
| 11.6 | O=c1c(O)c(-c2ccc(O)cc2)oc2cc(O)cc(O)c12 |

| SMILES | EC50 [µM] |
| --- | --- |
| CN1CCN(c2cc([N+](=O)[O-])ccc2Cl)CC1 | > 300 |

Reference: BindingDB's records for doi:10.7270/Q2TX3CTT (Broad Institute, 2010)
